Source: the NIST ThermoML archive (doi:10.1016/j.jct.2019.03.007)

Assay: molar heat capacity at constant pressure
Settings: 101.33 kPa, DSC

O=[N+]([O-])[O-].O=[N+]([O-])[O-].[Ca+2] [calcium nitrate]
Settings | molar heat capacity at constant pressure [J/K/mol]
267.18 K, Crystal 2 | 142.87
268.18 K, Crystal 2 | 143.14
269.18 K, Crystal 2 | 143.48
270.18 K, Crystal 2 | 143.75
271.18 K, Crystal 2 | 144.11
272.18 K, Crystal 2 | 144.39
273.18 K, Crystal 2 | 144.69
274.18 K, Crystal 2 | 145.05
275.18 K, Crystal 2 | 145.33
276.18 K, Crystal 2 | 145.65
277.18 K, Crystal 2 | 145.91
278.18 K, Crystal 2 | 146.15
279.18 K, Crystal 2 | 146.49
280.18 K, Crystal 2 | 146.74
281.18 K, Crystal 2 | 147.05
282.18 K, Crystal 2 | 147.32
283.18 K, Crystal 2 | 147.62
284.18 K, Crystal 2 | 148.05
285.18 K, Crystal 2 | 148.47
286.18 K, Crystal 2 | 149.01
287.18 K, Crystal 2 | 149.55
288.18 K, Crystal 2 | 150.15
289.18 K, Crystal 2 | 150.77
290.18 K, Crystal 1 | 151.37
291.18 K, Crystal 1 | 151.12
292.18 K, Crystal 1 | 150.21
293.18 K, Crystal 1 | 149.35
294.18 K, Crystal 1 | 148.69
295.18 K, Crystal 1 | 148.17
296.18 K, Crystal 1 | 147.88
297.18 K, Crystal 1 | 147.79
298.18 K, Crystal 1 | 147.74
299.18 K, Crystal 1 | 147.76
300.18 K, Crystal 1 | 147.88
301.18 K, Crystal 1 | 148.08
302.18 K, Crystal 1 | 148.34
303.18 K, Crystal 1 | 148.7
304.18 K, Crystal 1 | 149.02
305.18 K, Crystal 1 | 149.46
306.18 K, Crystal 1 | 149.88
307.18 K, Crystal 1 | 150.3
308.18 K, Crystal 1 | 150.74
309.18 K, Crystal 1 | 151.11
310.18 K, Crystal 1 | 151.52
311.18 K, Crystal 1 | 151.89
312.18 K, Crystal 1 | 152.28
313.18 K, Crystal 1 | 152.66
314.18 K, Crystal 1 | 153.07
315.18 K, Crystal 1 | 153.52
316.18 K, Crystal 1 | 153.88
317.18 K, Crystal 1 | 154.27
318.18 K, Crystal 1 | 154.64
319.18 K, Crystal 1 | 154.97
320.18 K, Crystal 1 | 155.32
321.18 K, Crystal 1 | 155.55
322.18 K, Crystal 1 | 155.81
323.18 K, Crystal 1 | 155.97
324.18 K, Crystal 1 | 156.09
325.18 K, Crystal 1 | 156.21
326.18 K, Crystal 1 | 156.25
327.18 K, Crystal 1 | 156.31
328.18 K, Crystal 1 | 156.31
328.78 K, Crystal 1 | 142.63
329.18 K, Crystal 1 | 156.34
329.78 K, Crystal 1 | 143.76
330.18 K, Crystal 1 | 156.4
330.78 K, Crystal 1 | 144.52
331.18 K, Crystal 1 | 156.44
331.78 K, Crystal 1 | 145.04
332.18 K, Crystal 1 | 156.55
332.78 K, Crystal 1 | 145.41
333.18 K, Crystal 1 | 156.64
333.78 K, Crystal 1 | 145.78
334.18 K, Crystal 1 | 156.71
334.78 K, Crystal 1 | 146.14
335.18 K, Crystal 1 | 156.85
335.78 K, Crystal 1 | 146.49
336.18 K, Crystal 1 | 156.94
336.78 K, Crystal 1 | 146.84
337.18 K, Crystal 1 | 157.08
337.78 K, Crystal 1 | 147.18
338.18 K, Crystal 1 | 157.1
338.78 K, Crystal 1 | 147.5
339.18 K, Crystal 1 | 157.13
339.78 K, Crystal 1 | 147.78
340.18 K, Crystal 1 | 157.13
340.78 K, Crystal 1 | 148.04
341.18 K, Crystal 1 | 157.22
341.78 K, Crystal 1 | 148.31
342.18 K, Crystal 1 | 157.26
342.78 K, Crystal 1 | 148.58
343.18 K, Crystal 1 | 157.38
343.78 K, Crystal 1 | 148.83
344.18 K, Crystal 1 | 157.49
344.78 K, Crystal 1 | 149.08
345.18 K, Crystal 1 | 157.55
345.78 K, Crystal 1 | 149.33
346.18 K, Crystal 1 | 157.7
346.78 K, Crystal 1 | 149.56
347.18 K, Crystal 1 | 157.84
347.78 K, Crystal 1 | 149.77
348.18 K, Crystal 1 | 158
348.78 K, Crystal 1 | 149.98
349.18 K, Crystal 1 | 158.16
349.78 K, Crystal 1 | 150.2
350.18 K, Crystal 1 | 158.3
350.78 K, Crystal 1 | 150.42
351.18 K, Crystal 1 | 158.39
351.78 K, Crystal 1 | 150.66
352.18 K, Crystal 1 | 158.48
352.78 K, Crystal 1 | 150.89
353.18 K, Crystal 1 | 158.58
353.78 K, Crystal 1 | 151.12
354.18 K, Crystal 1 | 158.8
354.78 K, Crystal 1 | 151.32
355.18 K, Crystal 1 | 158.94
355.78 K, Crystal 1 | 151.51
356.18 K, Crystal 1 | 159.08
356.78 K, Crystal 1 | 151.68
357.18 K, Crystal 1 | 159.2
357.78 K, Crystal 1 | 151.85
358.18 K, Crystal 1 | 159.38
358.78 K, Crystal 1 | 152.01
359.18 K, Crystal 1 | 159.61
359.78 K, Crystal 1 | 152.18
360.18 K, Crystal 1 | 159.81
360.78 K, Crystal 1 | 152.37
361.18 K, Crystal 1 | 160.09
